Experimental data from PubChem BioAssay (NCI).
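All cell lines were grown in 96-well plates and treated with compound for 48 hours. GI50 = concentration required for 50% inhibition of growth. The concentration for full growth arrest is given as TGI.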

Assays:
Test in all cases: NCI anticancer screen, dose series, 48 h
[1] = tested on: CCRF-CEM leukemia
[2] = tested on: HL-60(TB) leukemia
[3] = tested on: K-562 leukemia
[4] = tested on: 786-0 renal
[5] = tested on: A498 renal
[6] = tested on: A549 NSCLC
[7] = tested on: ACHN renal
[8] = tested on: BT-549 breast
[9] = tested on: CAKI-1 renal
[10] = tested on: COLO 205 colon
[11] = tested on: DU-145 prostate
[12] = tested on: EKVX NSCLC
[13] = tested on: HCC-2998 colon
[14] = tested on: HCT-116 colon
[15] = tested on: HCT-15 colon
[16] = tested on: HOP-62 NSCLC
[17] = tested on: IGROV1 ovarian
[18] = tested on: KM12 colon
[19] = tested on: LOX IMVI melanoma
[20] = tested on: M14 melanoma
[21] = tested on: MALME-3M melanoma
[22] = tested on: MCF7 breast
[23] = tested on: MDA-MB-231 breast
[24] = tested on: MDA-MB-435
[25] = tested on: MOLT-4 leukemia
[26] = tested on: NCI-H226 lung
[27] = tested on: NCI-H23 lung
[28] = tested on: NCI-H460 lung
[29] = tested on: NCI-H522 lung
[30] = tested on: NCI/ADR-RES ovarian
[31] = tested on: OVCAR-3 ovarian
[32] = tested on: OVCAR-4 ovarian
[33] = tested on: OVCAR-5 ovarian
[34] = tested on: PC-3 prostate
[35] = tested on: RPMI-8226 leukemia
[36] = tested on: RXF 393 renal
[37] = tested on: SF-295 CNS
[38] = tested on: SF-539 CNS
[39] = tested on: SK-MEL-2 melanoma
[40] = tested on: SK-MEL-28 melanoma
[41] = tested on: SK-MEL-5 melanoma
[42] = tested on: SK-OV-3 ovarian
[43] = tested on: SNB-19 CNS
[44] = tested on: SNB-75 CNS
[45] = tested on: SR leukemia
[46] = tested on: SW-620 colon
[47] = tested on: T-47D breast
[48] = tested on: TK-10 renal
[49] = tested on: U251 CNS
[50] = tested on: UACC-62 melanoma
[51] = tested on: UO-31 renal
[52] = tested on: HS 578T breast

Q: How did the TGI [1] turn out when `COC(=O)C1=CC(NC(=O)OCc2ccccc2)C(C(=O)c2ccccc2)C[C@@H]1Sc1ccccc1` (stereo partly drawn) was run?
A: The TGI was 4.99 µM.

Q: And the TGI [2]?
A: Its TGI is 3.03 µM.

Q: What about the TGI [3] of the same compound?
A: The TGI was 7.72 µM.

Q: How did the TGI [4] turn out when `COc1ccc([C@@]23OC[C@@H]4[C@@H](OC[C@@H]42)c2cc(OC)c(OC)cc23)cc1OC` was run?
A: The TGI was > 100 µM.

Q: And the TGI [5]?
A: The TGI was > 100 µM.

Q: And the TGI [6]?
A: Its TGI is > 100 µM.

Q: And the TGI [7]?
A: The TGI was > 100 µM.

Q: What about the TGI [8] of the same compound?
A: Its TGI is > 100 µM.

Q: What about the TGI [9] of the same compound?
A: Its TGI is > 100 µM.

Q: What about the TGI [10] of the same compound?
A: The TGI was > 100 µM.

Q: And the TGI [11]?
A: Its TGI is > 100 µM.

Q: And the TGI [12]?
A: The TGI was > 100 µM.

Q: And the TGI [13]?
A: Its TGI is > 100 µM.

Q: What about the TGI [14] of the same compound?
A: The TGI was > 100 µM.

Q: And the TGI [15]?
A: The TGI was > 100 µM.

Q: And the TGI [2]?
A: The TGI was > 100 µM.

Q: What about the TGI [16] of the same compound?
A: Its TGI is > 100 µM.

Q: What about the TGI [17] of the same compound?
A: The TGI was > 100 µM.

Q: And the TGI [3]?
A: The TGI was > 100 µM.

Q: What about the TGI [18] of the same compound?
A: The TGI was > 100 µM.

Q: What about the TGI [19] of the same compound?
A: The TGI was > 100 µM.

Q: And the TGI [20]?
A: The TGI was > 100 µM.

Q: What about the TGI [21] of the same compound?
A: Its TGI is > 100 µM.

Q: And the TGI [22]?
A: Its TGI is > 100 µM.

Q: What about the TGI [23] of the same compound?
A: Its TGI is > 100 µM.

Q: What about the TGI [24] of the same compound?
A: Its TGI is > 100 µM.

Q: What about the TGI [25] of the same compound?
A: Its TGI is > 100 µM.

Q: And the TGI [26]?
A: The TGI was > 100 µM.

Q: What about the TGI [27] of the same compound?
A: Its TGI is > 100 µM.

Q: And the TGI [28]?
A: The TGI was > 100 µM.

Q: And the TGI [29]?
A: The TGI was > 100 µM.

Q: And the TGI [30]?
A: The TGI was > 100 µM.

Q: And the TGI [31]?
A: The TGI was > 100 µM.

Q: And the TGI [32]?
A: The TGI was > 100 µM.

Q: And the TGI [33]?
A: Its TGI is > 100 µM.

Q: And the TGI [34]?
A: The TGI was > 100 µM.

Q: And the TGI [35]?
A: The TGI was > 100 µM.

Q: And the TGI [36]?
A: The TGI was > 100 µM.

Q: And the TGI [37]?
A: Its TGI is > 100 µM.

Q: And the TGI [38]?
A: Its TGI is > 100 µM.

Q: What about the TGI [39] of the same compound?
A: Its TGI is > 100 µM.

Q: And the TGI [40]?
A: Its TGI is > 100 µM.

Q: And the TGI [41]?
A: Its TGI is > 100 µM.

Q: What about the TGI [42] of the same compound?
A: Its TGI is > 100 µM.

Q: And the TGI [43]?
A: Its TGI is > 100 µM.

Q: What about the TGI [44] of the same compound?
A: Its TGI is > 100 µM.

Q: And the TGI [45]?
A: Its TGI is > 100 µM.

Q: What about the TGI [46] of the same compound?
A: Its TGI is > 100 µM.

Q: And the TGI [47]?
A: Its TGI is > 100 µM.

Q: What about the TGI [48] of the same compound?
A: Its TGI is > 100 µM.

Q: And the TGI [49]?
A: Its TGI is > 100 µM.

Q: What about the TGI [50] of the same compound?
A: Its TGI is > 100 µM.

Q: And the TGI [51]?
A: The TGI was > 100 µM.

Q: `c1ccc(Cn2c(-c3ccc(OC[C@H](C4CCNCC4)n4c(-c5ccccc5)nc5ccccc54)cc3)nc3ccccc32)cc1` was tested. Which GI50 [5] did it give?
A: Its GI50 is 1.48 µM.

Q: And the TGI [5]?
A: The TGI was 2.83 µM.

Q: And the GI50 [52]?
A: Its GI50 is 2 µM.

Q: What about the TGI [52] of the same compound?
A: Its TGI is 4.79 µM.

Q: And the GI50 [30]?
A: Its GI50 is 7.74 µM.

Q: What about the TGI [30] of the same compound?
A: The TGI was > 80.7 µM.

Q: What about the GI50 [47] of the same compound?
A: Its GI50 is 2.19 µM.

Q: And the TGI [47]?
A: The TGI was 4.72 µM.

Q: And the GI50 [48]?
A: The GI50 was 1.63 µM.

Q: And the TGI [48]?
A: The TGI was 3.08 µM.
